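Dose response: 5 concentrations. Exposure: 48 h. Format: 96-well plates. Endpoint: linear interpolation; highest concentration if not reached. GI50 is the concentration that inhibits growth by half.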 Active and inactive are the calls of the source. Rule as the data show it: active = GI50 up to about 1.1 µM and inactive = higher.
Legend:
Assay in all cases: growth of human tumour cells (NCI), 48 h
[1] = tested on: HL-60
[2] = tested on: IGROV-1
[3] = tested on: K562
[4] = tested on: HCT-15
[5] = tested on: SF-539
[6] = tested on: SNB-75
[7] = tested on: XF498
[8] = tested on: UACC-257
[9] = tested on: MOLT-4
[10] = tested on: SNB-78
[11] = tested on: SK-OV-3
[12] = tested on: Malme-3M
[13] = tested on: 786-0
[14] = tested on: UO-31
[15] = tested on: SW-620
[16] = tested on: ACHN
[17] = tested on: DLD-1
[18] = tested on: M14
[19] = tested on: A498
[20] = tested on: EKVX
[21] = tested on: SF-295
[22] = tested on: M19-MEL
[23] = tested on: DMS-114
[24] = tested on: SK-MEL-5
[25] = tested on: U-251
[26] = tested on: SNB-19
[27] = tested on: SK-MEL-28
[28] = tested on: KM12
[29] = tested on: SF-268
[30] = tested on: RPMI-8226
[31] = tested on: UACC-62
[32] = tested on: NCI-H23
[33] = tested on: DMS-273
[34] = tested on: OVCAR-4
[35] = tested on: NCI-H226
[36] = tested on: COLO 205
[37] = tested on: A549
[38] = tested on: SN12C
[39] = tested on: NCI-H522
[40] = tested on: OVCAR-8
[41] = tested on: HCT-116
[42] = tested on: LXFL 529
[43] = tested on: OVCAR-3
[44] = tested on: RXF 393
[45] = tested on: SK-MEL-2
[46] = tested on: HOP-62
[47] = tested on: HT-29
[48] = tested on: CCRF-CEM
[49] = tested on: LOX IMVI
[50] = tested on: HOP-18
[51] = tested on: SR
[52] = tested on: KM-20L2
[53] = tested on: NCI-H460
[54] = tested on: TK-10
[55] = tested on: OVCAR-5
[56] = tested on: HCC 2998
[57] = tested on: CAKI-1

CN1C(=O)N(c2nc3ccccc3[nH]2)C(C)(C)C1=O
GI50 [1]: > 100 µM (inactive)
GI50 [2]: > 100 µM (inactive)
GI50 [3]: > 100 µM (inactive)
GI50 [4]: > 100 µM
GI50 [5]: > 100 µM (inactive)
GI50 [6]: > 100 µM (inactive)
GI50 [7]: > 100 µM (inactive)
GI50 [8]: > 100 µM (inactive)
GI50 [9]: > 100 µM (inactive)
GI50 [10]: > 100 µM (inactive)
GI50 [11]: > 100 µM (inactive)
GI50 [12]: > 100 µM (inactive)
GI50 [13]: > 100 µM (inactive)
GI50 [14]: > 100 µM (inactive)
GI50 [15]: > 100 µM (inactive)
GI50 [16]: > 100 µM (inactive)
GI50 [17]: > 100 µM (inactive)
GI50 [18]: > 100 µM (inactive)
GI50 [19]: > 100 µM (inactive)
GI50 [20]: > 100 µM (inactive)
GI50 [21]: > 100 µM (inactive)
GI50 [22]: > 100 µM (inactive)
GI50 [23]: > 100 µM (inactive)
GI50 [24]: > 100 µM (inactive)
GI50 [25]: > 100 µM (inactive)
GI50 [26]: > 100 µM (inactive)
GI50 [27]: > 100 µM (inactive)
GI50 [28]: > 100 µM (inactive)
GI50 [29]: > 100 µM (inactive)
GI50 [30]: > 100 µM (inactive)
GI50 [31]: > 100 µM (inactive)
GI50 [32]: > 100 µM (inactive)
GI50 [33]: > 100 µM (inactive)
GI50 [34]: > 100 µM (inactive)
GI50 [35]: > 100 µM (inactive)
GI50 [36]: > 100 µM (inactive)
GI50 [37]: > 100 µM (inactive)
GI50 [38]: > 100 µM (inactive)
GI50 [39]: > 100 µM (inactive)
GI50 [40]: > 100 µM (inactive)
GI50 [41]: > 100 µM (inactive)
GI50 [42]: > 100 µM (inactive)
GI50 [43]: > 100 µM (inactive)
GI50 [44]: > 100 µM (inactive)
GI50 [45]: > 100 µM (inactive)
GI50 [46]: > 100 µM (inactive)
GI50 [47]: > 100 µM (inactive)
GI50 [48]: > 100 µM (inactive)
GI50 [49]: > 100 µM (inactive)
GI50 [50]: > 100 µM (inactive)
GI50 [51]: > 100 µM (inactive)
GI50 [52]: > 100 µM (inactive)

COc1ccc2c(c1)OC(c1ccccc1O)CC2=O (configuration not stated)
GI50 [3]: 28.3 µM (inactive)
GI50 [4]: 27.2 µM
GI50 [5]: 45.9 µM (inactive)
GI50 [6]: 30.9 µM (inactive)
GI50 [7]: 40.7 µM (inactive)
GI50 [8]: 39.5 µM (inactive)
GI50 [9]: 26.1 µM (inactive)
GI50 [10]: 26.5 µM (inactive)
GI50 [53]: 50.1 µM (inactive)
GI50 [12]: 47.3 µM (inactive)
GI50 [13]: 40.5 µM (inactive)
GI50 [14]: 18.1 µM (inactive)
GI50 [15]: 40.6 µM (inactive)
GI50 [16]: 46.2 µM (inactive)
GI50 [17]: 29 µM (inactive)
GI50 [18]: 39.9 µM (inactive)
GI50 [19]: 53.1 µM (inactive)
GI50 [20]: 96.8 µM (inactive)
GI50 [21]: 45.7 µM (inactive)
GI50 [54]: > 100 µM (inactive)
GI50 [24]: 40 µM (inactive)
GI50 [25]: 44.5 µM (inactive)
GI50 [26]: > 100 µM (inactive)
GI50 [55]: > 100 µM (inactive)
GI50 [27]: 48.2 µM (inactive)
GI50 [28]: 27.5 µM (inactive)
GI50 [29]: 29.2 µM (inactive)
GI50 [30]: 23.9 µM (inactive)
GI50 [32]: 28.7 µM (inactive)
GI50 [34]: 47.3 µM (inactive)
GI50 [56]: 48.9 µM (inactive)
GI50 [37]: 40.6 µM (inactive)
GI50 [38]: 41.5 µM (inactive)
GI50 [39]: 27.9 µM (inactive)
GI50 [40]: 47.6 µM (inactive)
GI50 [41]: 29.5 µM (inactive)
GI50 [42]: 21.7 µM (inactive)
GI50 [57]: 51.5 µM (inactive)
GI50 [43]: 28.1 µM (inactive)
GI50 [45]: 26.6 µM (inactive)
GI50 [46]: 41.4 µM (inactive)
GI50 [47]: 74.6 µM (inactive)
GI50 [48]: 30.5 µM (inactive)
GI50 [50]: 5.64 µM (inactive)
GI50 [52]: > 100 µM (inactive)
